Test results from PubChem BioAssay AID330 (DTP/NCI, 2004).
Inconclusive results and toxic doses are left out.

System: P388 leukemia ip, CD2F1 mice, survival T/C
Assay: NCI In Vivo Anticancer Drug Screen. Data for tumor model P388 Leukemia (intraperitoneal) in CD2F1 (CDF1) mice
Conditions: endpoint: median survival time, higher = longer survival
Outline: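 Mice carrying the transplanted tumor received test compound or vehicle. Survival was recorded in each group, and the value is the treated-group measurement divided by that of the vehicle-treated control group.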

[1] = dose: 100.0 mg/kg/injection, schedule: Q01DX009 (ip), vehicle: saline with Tween-80
[2] = dose: 200.0 mg/kg/injection, schedule: Q01DX009 (ip), vehicle: saline with Tween-80
[3] = dose: 50.0 mg/kg/injection, schedule: Q01DX009 (ip), vehicle: saline with Tween-80
[4] = dose: 50.0 mg/kg/injection, schedule: Q01DX005 (ip), vehicle: saline with Tween-80
[5] = dose: 100.0 mg/kg/injection, schedule: Q01DX005 (ip), vehicle: saline with Tween-80
[6] = dose: 50.0 mg/kg/injection, schedule: Q01DX005 (ip), vehicle: Klucel (hydroxypropylcellulose) (HPC)
[7] = dose: 100.0 mg/kg/injection, schedule: Q01DX005 (ip), vehicle: Klucel (hydroxypropylcellulose) (HPC)

Q: Which T/C (dose: 50.0 mg/kg/injection, schedule: Q01DX009 (ip), vehicle: suspension in saline) does the source give for `CSc1ccc(NC(=S)SCc2ccc(Cl)cc2)cc1Cl` here?
A: 108 % of control

Q: What about the T/C (dose: 100.0 mg/kg/injection, schedule: Q01DX009 (ip), vehicle: suspension in saline) of the same compound?
A: 117 % of control

Q: What about the T/C (dose: 200.0 mg/kg/injection, schedule: Q01DX009 (ip), vehicle: suspension in saline) of the same compound?
A: 116 % of control

Q: What does the source list for `CC(=O)Nc1c([N+](=O)[O-])cc2c3c(cccc13)CC2`?
A: T/C [1]: 86 % of control; T/C [2]: 90 % of control

Q: Which T/C [3] does the source give for `CC1(CCl)Nc2ccccc2C(=O)N1c1ccc(Cl)cc1` (centres undefined) here?
A: 94 % of control

Q: What about the T/C [1] of the same compound?
A: 95 % of control

Q: What about the T/C [2] of the same compound?
A: 89 % of control

Q: `CC(=O)OC1CC(n2cc(C)c(=O)[nH]c2=O)OC1COP(=O)(N1CC1(C)C)N1CC1(C)C` (centres undefined) was tested. Which T/C (dose: 25.0 mg/kg/injection, schedule: Q04DX003 (ip), vehicle: saline with Tween-80) did it give?
A: 110 % of control

Q: And the T/C (dose: 200.0 mg/kg/injection, schedule: Q04DX003 (ip), vehicle: saline with Tween-80)?
A: 159 % of control

Q: How did the T/C [4] turn out when `OCCN(CCO)C1c2ccccc2-c2ccccc21` was run?
A: 98 % of control

Q: And the T/C [5]?
A: 89 % of control

Q: What about the T/C (dose: 200.0 mg/kg/injection, schedule: Q01DX005 (ip), vehicle: saline with Tween-80) of the same compound?
A: 90 % of control

Q: How did the T/C (dose: 25.0 mg/kg/injection, schedule: Q01DX005 (ip), vehicle: saline) turn out when `C[n+]1cc(Cl)cc(Br)c1` was run?
A: 117 % of control

Q: Which results are given for `Cc1c(Br)sc2c1ccc1ccccc12`?
A: T/C [3]: 101 % of control; T/C [1]: 100 % of control; T/C [2]: 109 % of control

Q: How did the T/C [4] turn out when `CN(C)c1ccc(Cc2ccc(N(C)C)nc2)cn1` was run?
A: 109 % of control

Q: What about the T/C [5] of the same compound?
A: 110 % of control

Q: How did the T/C (dose: 60.0 mg/kg/injection, schedule: Q01DX005 (ip), vehicle: saline with Tween-80) turn out when `CCOC(=O)c1[nH]c(=S)sc1N` was run?
A: 99 % of control

Q: And the T/C (dose: 120.0 mg/kg/injection, schedule: Q01DX005 (ip), vehicle: saline with Tween-80)?
A: 92 % of control

Q: What about the T/C (dose: 240.0 mg/kg/injection, schedule: Q01DX005 (ip), vehicle: saline with Tween-80) of the same compound?
A: 90 % of control

Q: For `Cc1cc(C(O)(C(F)(F)F)C(F)(F)F)c(N)c(C(O)(C(F)(F)F)C(F)(F)F)c1`, which T/C [6] is on record?
A: 104 % of control

Q: What about the T/C [7] of the same compound?
A: 103 % of control

Q: What does the source list for `COc1cc2c(cc1OC)C(O)C1CCCNC1C2` (centres undefined)?
A: T/C (dose: 25.0 mg/kg/injection, schedule: Q04DX002 (ip), vehicle: saline): 98 % of control; T/C (dose: 50.0 mg/kg/injection, schedule: Q04DX002 (ip), vehicle: saline): 103 % of control; T/C (dose: 100.0 mg/kg/injection, schedule: Q04DX002 (ip), vehicle: saline): 102 % of control; T/C (dose: 200.0 mg/kg/injection, schedule: Q04DX002 (ip), vehicle: saline): 102 % of control; T/C (dose: 400.0 mg/kg/injection, schedule: Q04DX002 (ip), vehicle: saline): 101 % of control

Q: Which T/C [6] does the source give for `OCC1OC(O)C(N=Cc2ccccc2O)C(O)C1O` (centres undefined) here?
A: 104 % of control

Q: What about the T/C [7] of the same compound?
A: 104 % of control

Q: And the T/C (dose: 200.0 mg/kg/injection, schedule: Q01DX005 (ip), vehicle: Klucel (hydroxypropylcellulose) (HPC))?
A: 106 % of control

Q: Which T/C (dose: 6.25 mg/kg/injection, schedule: Q04DX003 (ip), vehicle: Klucel (hydroxypropylcellulose) (HPC)) does the source give for `N#CN=[N+]([O-])c1cccc([N+](=O)[O-])c1` here?
A: 106 % of control

Q: And the T/C (dose: 12.5 mg/kg/injection, schedule: Q04DX003 (ip), vehicle: Klucel (hydroxypropylcellulose) (HPC))?
A: 89 % of control

Q: `COC(=O)C1C2CCCN2OC1(C)CO` (centres undefined) was tested. Which T/C (dose: 7.5 mg/kg/injection, schedule: Q01DX005 (ip), vehicle: saline) did it give?
A: 100 % of control

Q: What about the T/C (dose: 15.0 mg/kg/injection, schedule: Q01DX005 (ip), vehicle: saline) of the same compound?
A: 106 % of control

Q: And the T/C (dose: 60.0 mg/kg/injection, schedule: Q01DX005 (ip), vehicle: saline)?
A: 203 % of control

Q: What about the T/C (dose: 120.0 mg/kg/injection, schedule: Q01DX005 (ip), vehicle: saline) of the same compound?
A: 96 % of control

Q: What about the T/C (dose: 240.0 mg/kg/injection, schedule: Q01DX005 (ip), vehicle: saline) of the same compound?
A: 99 % of control

Q: With `COc1ccc(SSc2ccc(OC)n[n+]2[O-])[n+]([O-])n1` as the compound, how does the T/C (dose: 10.0 mg/kg/injection, schedule: Q01DX001 (ip), vehicle: Klucel (hydroxypropylcellulose) (HPC)) read?
A: 103 % of control

Q: What about the T/C (dose: 200.0 mg/kg/injection, schedule: Q01DX001 (ip), vehicle: Klucel (hydroxypropylcellulose) (HPC)) of the same compound?
A: 111 % of control

Q: How did the T/C (dose: 100.0 mg/kg/injection, schedule: Q04DX003 (ip), vehicle: saline) turn out when `Cn1cnc2cc3c(cc2c1=O)nc1n3CCCC1` was run?
A: 102 % of control

Q: What about the T/C (dose: 200.0 mg/kg/injection, schedule: Q04DX003 (ip), vehicle: saline) of the same compound?
A: 95 % of control

Q: Which T/C (dose: 100.0 mg/kg/injection, schedule: Q04DX002 (ip), vehicle: Klucel (hydroxypropylcellulose) (HPC)) does the source give for `Cc1ccc(NC(=O)CCSC(=O)Nc2ccc(C)cc2)cc1` here?
A: 101 % of control

Q: And the T/C (dose: 200.0 mg/kg/injection, schedule: Q04DX002 (ip), vehicle: Klucel (hydroxypropylcellulose) (HPC))?
A: 104 % of control

Q: And the T/C (dose: 400.0 mg/kg/injection, schedule: Q04DX002 (ip), vehicle: Klucel (hydroxypropylcellulose) (HPC))?
A: 104 % of control

Q: What does the source list for `NC(=S)N1CC=CCC1`?
A: T/C (dose: 50.0 mg/kg/injection, schedule: Q01DX009 (ip), vehicle: Klucel (hydroxypropylcellulose) (HPC)): 99 % of control; T/C (dose: 100.0 mg/kg/injection, schedule: Q01DX009 (ip), vehicle: Klucel (hydroxypropylcellulose) (HPC)): 101 % of control; T/C (dose: 200.0 mg/kg/injection, schedule: Q01DX009 (ip), vehicle: Klucel (hydroxypropylcellulose) (HPC)): 101 % of control
